Laboratory results: US20260072030A1, “RAS BIOSENSORS” (The Regents of the University of California, priority 2022, published 2026)

Experiments:
Type in all cases: cell-based
EGFR = assay: Reversal of EGF-induced RasAR response by EGFR inhibitor; settings: RasAR + mCherry-KRasWT, 100 ng/ml EGF followed by 200 nM AG1478
Description: To determine whether RasAR can detect dynamic Ras activity, we co-expressed the sensor with mCherry-KRasWT in COS-7 cells and stimulated the cells with epidermal growth factor (EGF). […] Consistent with previous studies,26 we observed higher C/Y emission ratios in membrane ruffles following EGF stimulation, indicating enhanced KRas activity in these regions. In addition, consistent with the Golgi localization of Ras,26 we observed an increased activity in the Golgi compartment (FIGS. 2A and 8). […] The EGF-stimulated increases in the emission ratio occurred in both the membrane ruffles as well as the Golgi compartment (FIGS. 2B-2C and 8), with slower kinetics observed at the Golgi (FIG. 7A).
Cells were washed three times with Hanks's balanced salt solution (HBSS, Gibco) prior to imaging. Cells were imaged in HBSS in the dark at 37° C. […] Cells were imaged on a Zeiss Axio Observer Z1 microscope equipped with a 20×/0.8 NA objective and a Hamamatsu Flash 4.0 sCMOS camera, controlled using MicroManager 2.0 software. […] All fluorescence images were background-correcting by rolling circle background subtraction in ImageJ using a rolling-ball circle radius of 350 pixels. Cyan/yellow or yellow/cyan emission ratios were then calculated by dividing the CFP channel values by the CYFRET channel values, or the CYFRET channel values by CFP channel values, respectively. […]

KRasWT = target: T1, KRasWT (Homo sapiens, UniProt P01116); assay: Live-cell Ras inhibitor assay, COS-7 cells co-expressing RasAR and KRasWT control; settings: KRasWT controls, 10 μM, 24 hr, vs DMSO
T1 construct: host or cells: COS-7

ERK = ERK activity reporter (EKAR4) Y/C emission ratio in COS-7 cells; settings: 10 μM, 3 hr
mCherry-KRasG12C = assay: Ras expression assessed by RFP intensity in COS-7 cells
KRasG12C = target: T2, KRasG12C (Homo sapiens, UniProt P01116, G12C)
T2 construct: expressed in transfected cells; host or cells: COS-7

Src = Src inhibitor pretreatment, EGF-induced HRas activity measured with RasAR sensors in COS-7 cells; settings: for effect of pretreatment on EGF-induced response, cytosolic RasAR: RasAR + HRasWT, 1 μM inhibitor
Description: To clarify the regulatory role of Src on HRas at the Golgi, we monitored HRas activity at the Golgi with GA-RasAR in the presence of Src inhibitor PP2.
Phosphorylation of residue Y32 has been implicated in the negative regulation of HRas by Src.31 To verify this mechanism of Src inhibition we co-expressed RasAR with HRasY32F and stimulated with EGF. […] KRas was recently shown to be negatively regulated by Src via dual phosphorylation of Y32 and Y64,28 which negatively impacts multiple steps of the GTPase cycle and impairs binding to effectors. However, the role of Y64 in HRas has not been investigated. To test the hypothesis that phosphorylation of both Y32 and Y64 is involved in Src regulation of HRas, we expressed RasAR and an mCherry-labeled HRas mutant containing Y32F/Y64F mutations and monitored EGF-induced responses in the presence and absence of PP2.
Cells were washed three times with Hanks's balanced salt solution (HBSS, Gibco) prior to imaging. Cells were imaged in HBSS in the dark at 37° C. […] Cells were imaged on a Zeiss Axio Observer Z1 microscope equipped with a 20×/0.8 NA objective and a Hamamatsu Flash 4.0 sCMOS camera, controlled using MicroManager 2.0 software. For time series, images from multiple fields of view were acquired at each time point at 30 sec intervals. RFP was imaged using a 568DF55 excitation filter, a 600DRLP dichroic mirror, and a 653DF95 emission filter. CFP was imaged using a 420DF20 excitation filter, a 455DRLP dichroic mirror, and a 470DF40 emission filter. CYFRET was imaged using a 420DF20 excitation filter, a 455DRLP dichroic mirror, and a 535DF25 emission filter. YFP was imaged using a 495DF10 excitation filter, a 515DRLP dichroic mirror, and a 535DF25 emission filter. Exposure times for each channel were 250-500 ms. All filter sets were controlled by a Lambda 10-2 filter-changer (Sutter Instruments). All fluorescence images were background-correcting by rolling circle background subtraction in ImageJ using a rolling-ball circle radius of 350 pixels. Cyan/yellow or yellow/cyan emission ratios were then calculated by dividing the CFP channel values by the CYFRET channel values, or the CYFRET channel values by CFP channel values, respectively. For the time-series analysis, all values were normalized to the time point prior to drug addition by dividing each value by basal ratio value prior to drug addition. Co-expression experiments were processed using Cell Profiler on background subtracted images and segmented using CYFRET channel images. Individual t½ measurements were acquired using custom script within Matlab.

For `COc1cc2ncnc(Nc3cccc(Cl)c3)c2cc1OC` [AG1478], the “effect on C/Y emission ratio after EGF stimulation” value (EGFR) was “decrease in the C/Y emission ratio”.

With `C=CC(=O)N1CCN(c2ncnc3c(F)c(-c4c(O)cccc4F)c(Cl)cc23)CC1` [ARS1620] the “effect on RasAR C/Y emission ratio” value (KRasWT) was “no effect of inhibitor treatment”, the “Cohen's d, effect of treatment on EKAR4 Y/C emission ratio” value (ERK; mCherry-KRasG12C expressing COS-7 cells) was 0.84 and the “Cohen's d, effect of treatment on EKAR4 Y/C emission ratio” value (ERK; mCherry-KRasWT expressing COS-7 cells) was 0.02. The “Cohen's f, RFP intensities across titration treatment groups” value (mCherry-KRasG12C; ARS1620 titration experiment, 24 hr) was 0.06, the “time over which the C/Y emission ratio continuously declines after treatment” value (KRasG12C; 10 μM inhibitor) was 5 h and the “concentration dependence of C/Y emission ratio” value (KRasG12C; 10 μM, 3 μM, 1 μM, 0.3 μM, 0.1 μM, 24 hr) was “dose-dependent inhibition of KRasG12C”. For the same compound, the “effect on RasAR C/Y emission ratio” value (KRasG12C; 10 μM, 24 hr, vs DMSO) was “higher C/Y emission ratio in KRasG12C-expressing cells treated with DMSO compared with ARS1620 treatment”.

With `CC(C)(C)n1nc(-c2ccc(Cl)cc2)c2c(N)ncnc21` [PP2] the “effect of pretreatment on EGF-induced response at the Golgi” value (Src; GA-RasAR + mCherry-HRas, vs DMSO, n=300 cells each) was “enhanced”, the “effect of pretreatment on EGF-induced response, cytosolic RasAR” value (Src; vs DMSO) was “larger EGF-induced response” and the “effect of pretreatment on EGF-induced response, HRasY32F” value (Src; RasAR + mCherry-HRasY32F, PP2 1 μM, vs control cells) was “enhanced response to EGF”. The “effect of pretreatment on EGF-induced response, HRas Y32F/Y64F” value (Src; RasAR + mCherry-HRasY32F/Y64F, vs control cells, n=180 cells each) was “no significant difference” and the “effect of pretreatment on EGF-induced Ras activity at the plasma membrane” value (Src; pm-RasAR + mCherry-HRasWT, vs DMSO) was “did not affect EGF-induced Ras activity”.

For `COc1cc2ncnc(Nc3ccc(Oc4ccccc4)cc3)c2cc1OC` [SrcI1], the “effect of pretreatment on EGF-induced response, cytosolic RasAR” value (Src; vs DMSO) was “enhanced EGF-induced Ras activity”.

In the case of `C[C@@H]1C[C@@H]([C@H](O)CC2CC(=O)NC(=O)C2)C(=O)[C@@H](C)C1` [cycloheximide], the “effect on KRasG12C expression levels” value (mCherry-KRasG12C; 24-hr timeframe) is reported as “reduced KRasG12C expression levels”, the “Cohen's d, RFP intensities with and without cycloheximide” value (mCherry-KRasG12C; ARS1620 10 μM, cycloheximide 100 μg/ml) is reported as 0.36 and the “Cohen's f, effect of treatment on mCherry-KRasG12C expression by RFP intensity” value (mCherry-KRasG12C; cycloheximide treatment 24 hr) is reported as 1.26. The “effect of inhibiting protein re-synthesis on kinetics of Ras inactivation by ARS1620” value (KRasG12C; ARS1620 10 μM with cycloheximide 100 μg/ml) was “did not speed up the kinetics of Ras inactivation”.
